This note sets out measurements from ChEMBL document CHEMBL4482321, “Compounds and methods for treatment of cancer by inhibiting atg4b and blocking autophagy” (2017).

A word on the inhibition: it is the share of the control response that was lost under treatment. As a reminder, the IC50 is the concentration at which inhibition is half-maximal.

Calls of active or inactive are those of the source. No cut-off for these calls is given here.

In data set [1] the target is T1, Cysteine protease ATG4B (Homo sapiens) (UniProt Q9Y4P1).
T1 sequence (whole entry): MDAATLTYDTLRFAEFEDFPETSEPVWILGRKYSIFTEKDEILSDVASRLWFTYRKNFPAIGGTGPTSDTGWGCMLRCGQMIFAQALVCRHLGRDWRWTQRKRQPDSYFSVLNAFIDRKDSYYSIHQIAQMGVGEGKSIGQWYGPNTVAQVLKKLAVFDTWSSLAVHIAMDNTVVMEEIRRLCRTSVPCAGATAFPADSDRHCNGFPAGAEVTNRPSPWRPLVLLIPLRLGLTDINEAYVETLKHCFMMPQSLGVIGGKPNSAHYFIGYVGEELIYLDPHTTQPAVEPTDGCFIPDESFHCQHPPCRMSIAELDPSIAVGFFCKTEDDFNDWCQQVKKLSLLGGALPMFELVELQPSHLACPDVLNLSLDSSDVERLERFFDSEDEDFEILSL
The data set can be described thus: Inhibition of ATG4B (unknown origin) at 100 uM incubated up to 1 hr in presence of fluorescent protein substrate by FRET-based-LC3 cleavage assay relative to control.

Data set [2] has as its target T1, Cysteine protease ATG4B (Homo sapiens). Briefly: Inhibition of ATG4B (unknown origin) at 1.6 uM incubated up to 1 hr in presence of fluorescent protein substrate by FRET-based-LC3 cleavage assay relative to control.
The subject of data set [3] is MDA-MB-231. Briefly: Inhibition of autophagic flux in wortmannin-treated human MDA-MB-231 cells assessed as increase in p62 levels at 50 uM by Western blot analysis. The data set is classed as functional, cell-based.
The species entered for data set [4] is Homo sapiens. Briefly: Cytotoxicity against human CD34+ CML cells obtained from IM-nonresponding patient assessed as reduction in colony forming cells at 10 uM in presence of 5 imatinib incubated for 12 to 14 days. The data set is classed as functional, cell-based.
A short description of data set [5]: Cytotoxicity against human MDA-MB-231-R8 cells assessed as induction of cell killing incubated for 72 hrs by crystal violet staining based assay. The data set is classed as functional.
For another data set, the system named is SUM149PT. Briefly: Cytotoxicity against human SUM149PT cells assessed as induction of cell killing incubated for 72 hrs by crystal violet staining based assay. The data set is classed as functional.
For data set [6], the system named is MDA-MB-231. Briefly: Inhibition of autophagic flux in bafilomycin A-treated human MDA-MB-231 cells assessed as increase in LC3B-II levels at 50 uM by Western blot analysis. The data set is classed as functional, cell-based. (In general: A western blot detects proteins with antibodies after separation by electrophoresis.)
For data set [7], the system named is K562. Briefly: Synergistic cytotoxicity against human K562 cells assessed as reduction in cell viability at 5 to 10 uM in presence of 0.5 uM imatinib incubated for 72 hrs by trypan blue staining based assay relative to compound alone. The data set is classed as functional.
The subject of data set [8] is MDA-MB-231. Briefly: Inhibition of autophagic flux in bafilomycin A-treated human MDA-MB-231 cells assessed as increase in p62 levels at 50 uM by Western blot analysis. The data set is classed as functional, cell-based.
The nature of data set [9]: Cytotoxicity against human SUM149PT-R75 cells assessed as induction of cell killing incubated for 72 hrs by crystal violet staining based assay. The data set is classed as functional.
The species named for data set [10] is Homo sapiens. Briefly: Cytotoxicity against human CD34+ CML cells obtained from IM-nonresponding patient assessed as reduction in colony forming cells at 10 uM in presence of 150 nM DA incubated for 12 to 14 days. The data set is classed as functional, cell-based.
For a further data set, the target named is T2, Cysteine protease ATG4B (Homo sapiens, UniProt Q9Y4P1).
T2 sequence (Q9Y4P1 whole entry): T1 sequence (whole entry)
Briefly: Inhibition of ATG4B (unknown origin) incubated up to 1 hr in presence of fluorescent protein substrate by FRET-based-LC3 cleavage assay.

In a further data set the test system is Bone marrow cell. The data set can be described thus: Cytotoxicity against human CD34+ normal bone marrow cells […] assessed as reduction in colony forming cells up to 10 uM incubated for 12 to 14 days. In kind it is cell-based.
For data set [11], the system named is K562. Briefly: Synergistic induction of apoptosis in human K562 cells assessed as reduction in cell viability at 5 to 10 uM in presence of 0.5 uM imatinib incubated for 72 hrs by Annexin V-APC and propidium iodide staining based flow cytometry relative to compound alone. The data set is classed as functional.
For data set [12], the system named is MDA-MB-231. The data set can be described thus: Inhibition of autophagic flux in wortmannin-treated human MDA-MB-231 cells assessed as increase in LC3B-II levels at 50 uM by Western blot analysis. The data set is classed as functional, cell-based.
In data set [13] the test system is MDA-MB-231. The data set can be described thus: Cytotoxicity against human MDA-MB-231 cells assessed as induction of cell killing incubated for 72 hrs by crystal violet staining based assay. The conditions noted are these: MDA-MB-231, 72 h. In kind it is functional.
A further data set deals with BV-173. The data set can be described thus: Cytotoxicity against human BV173 cells assessed as reduction in colony forming cells at 5 to 10 uM in presence of 0.25 to 0.5 uM imatinib incubated for 2 weeks. The data set is classed as functional, cell-based.

As for `O=C(Nc1ccccn1)Nc1ncc([N+](=O)[O-])s1`, the inhibition came to 3% in data set [1] and 0% in [2].
`O=C(NCc1ccccc1)Nc1ncc([N+](=O)[O-])s1`: the outcome in the data set with MDA-MB-231 [3], in the data set filed under Homo sapiens [4], with MDA-MB-231 [6], in the data set on K562 [7], in the data set with MDA-MB-231 [8] and in the data set listed under Homo sapiens [10] was Active. For the same molecule, the result in the data set with K562 [11], in the data set on MDA-MB-231 [12] and in the data set on BV-173 was Active. The IC50 in data set [5] is 23.3 to 30.8 µM; in the data set on SUM149PT it was 25.6 to 33.2 µM; in data set [9] it was 24.5 to 34.1 µM; on Cysteine protease ATG4B it was 1.7 µM; with MDA-MB-231 [13] it was 42.9 to 59.1 µM. Besides, the Activity result with Bone marrow cell was “Non-Toxic”.
Regarding `O=C(Nc1ccccc1)Nc1ncc([N+](=O)[O-])s1`, the results for the inhibition in data set [1] and in data set [2] were 21% and 17%, respectively.
In the case of `COc1ccc(CNC(=O)Nc2ncc([N+](=O)[O-])s2)cc1`, the IC50 is 5.92 to 9.09 µM in data set [5]; 15.2 to 22.6 µM in the data set with SUM149PT; 26 to 35.1 µM in [9]; 1.6 µM at Cysteine protease ATG4B; 17.6 to 23.4 µM with MDA-MB-231 [13].
Take `O=C(Nc1ncc([N+](=O)[O-])s1)NC(Cc1ccccc1)C(=O)O` (stereo not drawn): the inhibition in data set [1] came to 17%; in [2], 0%.
For `O=C(O)CCC(NC(=O)Nc1ncc([N+](=O)[O-])s1)C(=O)O` (stereo not drawn), the inhibition in [1] turned out to be 27%; in data set [2], 10%.
